The source of these data is patent publication US5888999A, “Method for treating anxiety with muscarinic cholinergic receptor agonists” (Eli Lilly and Company, priority 1997, dated 1999).

The test system of one assay is 5-HT1A receptor.
Assay: not given
The conditions noted are these: only at the 5-HT1A and dopamine receptors; cited from earlier work.
With `O=C1CC2(CCCC2)CC(=O)N1CCCCN1CCN(c2ncccn2)CC1` [Buspirone], the “interaction at 5-HT1A receptors” value was “reasonable potency”.

The subject of a further assay is dopamine receptors.
Assay: not given
The conditions noted are these: only at the 5-HT1A and dopamine receptors; cited from earlier work.
Take `O=C1CC2(CCCC2)CC(=O)N1CCCCN1CCN(c2ncccn2)CC1` [Buspirone]: the “interaction at dopamine receptors” value is recorded as “reasonable potency”.

The target of the next assay is muscarinic acetylcholine receptors. Kind of assay: inhibition of specific binding of ^3 H-Oxotremorine-M (^3 H-Oxo) to rat cortex. The conditions noted are these: ^3 H-Oxotremorine 1.0 nM, 30 min, 25° C. Further details: species or system rat (male Wistar). From the text: The pharmacological properties of the compounds of the invention can be illustrated by determining their capability to inhibit the specific binding of ^3 H-Oxotremorine-M (^3 H-Oxo). Birdsdall N. J. M., Hulme E. C., and Burgen A. S. V. (1980). "The Character of Muscarinic Receptors in Different Regions of the Rat Brain". Proc. Roy. Soc. London (Series B) 207,1.
^3 H-Oxo labels muscarinic receptor in the CNS (with a preference for agonist domains of the receptors). Three different sites are labeled by ^3 H-Oxo. […] Using the present experimental conditions only the high and medium affinity sites are determined.
The inhibitory effects of compounds on ^3 H-oxo binding reflects the affinity for muscarinic acetylcholine receptors.
All preparations are performed at 0°-4° C. unless otherwise indicated. Fresh cortex (0.1-1 g) from male Wistar rats (150-250 g) is homogenized for 5-10 s in 10 mL […] Hepes pH: 7.4, with an Ultra-Turrax homogenizer. The homogenizer is rinsed with 10 mL of buffer and the combined suspension centrifuged for 15 min. at 40,000×g. The pellet is washed three times with buffer. In each step the pellet is homogenized as before in 2×10 mL of buffer and centrifuged for 10 min. at 40,000×g.
The final pellet is homogenized in 20 mM Hepes pH: 7.4 (100 mL per g of original tissue) and used for binding assay. Aliquots of 0.5 mL is added 25 μL of test solution and 25 μL of ^3 H-Oxotremorine (1.0 nM, final concentration) mixed and incubated for 30 min. at 25° C. Non-specific binding is determined in triplicate using arecoline (1 μg/mL, final concentration) as the test substance. After incubation samples are added 5 mL of ice-cold buffer and poured directly onto Whatman GF/C glass fiber filters under suction and immediately washed 2 times with 5 mL of ice-cold buffer. The amount of radioactivity on the filters are determined by conventional liquid scintillation counting. Specific binding is total binding minus non specific binding.
Test substances are dissolved in 10 mL water (if necessary heated on a steam-bath for less than 5 min.) at a concentration of 2.2 mg/mL. 25-75% inhibition of specific binding must be obtained before calculation of IC50. The test value will be given as IC50 (the concentration (nM) of the test substance which inhibits the specific binding of ^3 H-oxo by 50%).
IC50 =(applied test substance concentration)×(Cx /Co
where Co is specific binding in control assays and Cx is the specific binding in the test assay. (The calculations assume normal mass-action kinetics).
For `FC(F)(F)Oc1ccc(CSc2nccnc2O[C@H]2CN3CCC[C@@H]2C3)cc1` (relative stereo) [Compound 38, (±)-endo-2-(4-Trifluoromethoxybenzylthio)-3-(1-azabicyclo[3.2.1]octyl-6-oxy)pyrazine], the IC50 (usually the midpoint of a concentration-inhibition curve) turned out to be 0.0062 µM.
Same read-out and setting: to `CCCCCCSc1nccnc1OC1CN2CCC1CC2` (racemic) [Compound 12, (+/-)-3-(1-Hexylthio)-2-(1-azabicyclo[2.2.2]octyl-3-oxy)pyrazine] belongs 0.025 µM; to `CCCCSc1nccnc1OCCN(C)C` [Compound 17], 0.017 µM.
The same measure, in the same setting: to `FC(F)(F)CSc1nccnc1O[C@H]1CN2CCC[C@@H]1C2` (relative stereo) [Compound 33, (±)-endo-2-(2,2,2,-Trifluoroethylthio)-3-(1-azabicyclo[3.2.1]octyl-6-oxy)pyrazine] belongs 0.0015 µM.
On the same count and under the same terms, to `C=CCSc1nccnc1O[C@H]1CN2CCC[C@@H]1C2` (relative stereo) [Compound 36, (±)-endo-2-(2-propenylthio)-3-(1-azabicyclo[3.2.1]octyl-6-oxy)pyrazine] belongs 0.00034 µM; to `CCSc1nccnc1O[C@H]1CN2CCC[C@@H]1C2` (relative stereo) [Compound 32, (±)-endo-2-Ethylthio-3-(1-azabicyclo[3.2.1]octyl-6-oxy)pyrazine], 0.0039 µM; to `CN1CCC[C@H]1COc1cnccn1` [Compound 28, (S)-2-(1-Methyl-2-pyrrolidinylmethoxy)pyrazine], greater than 10 µM.
In turn, `FC(F)(F)CCCSc1nccnc1O[C@H]1CN2CCC[C@@H]1C2` (relative stereo) [Compound 35, (±)-endo-2-(4,4,4-Trifluorobutylthio)-3-(1-azabicyclo[3.2.1]octyl-6-oxy)pyrazine] registered an IC50 of 0.0032 µM.
The same measure, in the same setting: to `CCCSc1cncc(O[C@H]2CN3CCC[C@@H]2C3)n1` (relative stereo) [Compound 39, (±)-endo-2-Propylthio-6-(1-azabicyclo[3.2.1]octyl-6-oxy)pyrazine] belongs 0.01 µM; to `CCCSc1nccnc1O[C@H]1CN2CCC[C@@H]1C2` (relative stereo) [Compound 29, (±)-endo-2-Propylthio-3-(1-azabicyclo[3.2.1]octyl-6-oxy)pyrazine], 0.0017 µM; to `C(=Cc1ccccc1)CSc1nccnc1O[C@H]1CN2CCC[C@@H]1C2` (relative stereo) [Compound 42, (±)-endo-2-(3-Phenyl-2-propenylthio)-3-(1-azabicyclo[3.2.1]octyl-6-oxy)pyrazine], 0.0091 µM.
As for `CCOc1nccnc1OC1CN2CCC1CC2` (racemic) [Compound 11], the half-maximal inhibitory concentration (IC50) is 0.056 µM.
Same read-out and setting: to `COCCSc1nccnc1O[C@H]1CN2CCC[C@@H]1C2` (relative stereo) [Compound 41, (±)-endo-2-(2-methoxyethylthio)-3-(1-azabicyclo[3.2.1octyl-6-oxy)pyrazine] belongs 0.0032 µM; to `CSc1nccnc1OC1CN2CCC1CC2` (racemic) [Compound 13, (+/-)-3-Methylthio-2-(1-azabicyclo[2.2.2]octyl-3-oxy)pyrazine], 0.074 µM.
Same read-out and setting: to `CC(C)CCSc1nccnc1O[C@H]1CN2CCC[C@@H]1C2` (relative stereo) [Compound 37, (±)-endo-2-(3-Methylbutylthio)-3-(1-azabicyclo[3.2.1]octyl-6-oxy)pyrazin] belongs 0.0013 µM; to `CC(C)CSc1nccnc1O[C@H]1CN2CCC[C@@H]1C2` (relative stereo) [Compound 31, (±)-endo-2-(2-Methylpropylthio)-3-(1-azabicyclo[3.2.1]octyl-6-oxy)-pyrazine], 0.0034 µM; to `CN(C)CCOc1cnccn1` [Compound 26, 2-(2-Dimethylaminoethoxy)pyrazine], greater than 1 µM.
`CCCSc1nccnc1OC1CN2CCC1CC2` (racemic) [Compound 15]: the IC50 stood at 0.014 µM.
On to `CCCCSc1nccnc1O[C@H]1CN2CCC[C@@H]1C2` (relative stereo) [Compound 24, 3-(1-butylthio)-2-[endo-(+,-)-6-(1-azabicyclo[3.2.1]octyloxy)]-pyrazine], for which the IC50 turned out to be 0.0022 µM.
The same measure, in the same setting: to `c1cnc(O[C@H]2CN3CCC[C@@H]2C3)cn1` [Compound 21, 2-[endo-(+,-)-6-(1-azabicyclo[3.2.1]octyloxy)]-pyrazine] belongs 0.026 µM; to `CCCCOc1nccnc1O[C@H]1CN2CCC[C@@H]1C2` (relative stereo) [Compound 23, 3-(1-butyloxy)-2-[endo-(+,-)-6-(1-azabicyclo[3.2.1]octyloxy)]-pyrazine], 0.0049 µM.
For `CCCCSc1nccnc1OCC[N+](C)(C)C` [Compound 18, 3-(1-Butylthio)-2-(2-(trimethylamino)ethoxy)pyrazine iodide], the 50% inhibitory concentration (IC50) was 0.021 µM.
On to `CCCCCCCSc1nccnc1OC1CN2CCC1CC2` (racemic) [Compound 16], for which the IC50 was 0.039 µM. This IC50 is about 1.9-fold higher than that of the compound before.
Compound `FC(F)(F)CSc1cncc(O[C@H]2CN3CCC[C@@H]2C3)n1` (relative stereo) [Compound 40, (±)-endo-2-(2.2.2-Trifluoroethylthio)-6-(1-azabicyclo[3.2.1]octyl-6-oxy)pyrazine] gave an IC50 of 0.06 µM.
The same measure, in the same setting: to `COc1nccnc1OC1CN2CCC1CC2` (racemic) [Compound 10, (+/-)-3-Methoxy-2-(1-azabicyclo[2.2.2]octyl-3-oxy)pyrazine] belongs 0.354 µM; to `Clc1cncc(O[C@H]2CN3CCC[C@@H]2C3)n1` (relative stereo) [Compound 22, 6-Chloro-2-[endo-(+,-)-6-(1-azabicyclo[3.2.1]octyloxy)]-pyrazine], 0.14 µM; to `CCSc1nccnc1OC1CN2CCC1CC2` (racemic) [Compound 14, (+/-)-3-Ethylthio-2-(1-azabicyclo[2.2.2]octyl-3-oxy)pyrazine], 0.026 µM.
On the same count and under the same terms, to `Clc1nccnc1O[C@H]1CN2CCC[C@@H]1C2` (relative stereo) [Compound 19, 3-Chloro-2-[endo-(+,-)-6-(1-azabicyclo[3.2.1]octyloxy)]-pyrazine] belongs 0.121 µM; to `c1cnc(OC2CN3CCC2CC3)cn1` (racemic) [Compound 8, (+/-)-2-(1-Azabicyclo[2.2.2]octyl-3-oxy)pyrazine], 1.04 µM; to `C/C=C/CSc1nccnc1O[C@H]1CN2CCC[C@@H]1C2` (relative stereo) [Compound 34, (±)-endo-2-(trans-2-Butenylthio)-3-(1-azabicyclo[3.2.1]octyl-6-oxy)pyrazine], 0.002 µM.
The same measure, in the same setting: to `CCCCCSc1nccnc1O[C@H]1CN2CCC[C@@H]1C2` (relative stereo) [Compound 30, (±)-endo-2-Pentylthio-3-(1-azabicyclo[3.2.1]octyl-6-oxy)pyrazine] belongs 0.0044 µM; to `CCCCCSc1nccnc1OC1CN2CCC1CC2` (racemic) [Compound 7, (+/-)-3-Pentylthio-2-(1-azabicyclo[2.2.2]octyl-3-oxy)pyrazine], 0.016 µM.
Consider `CC(C)=CCCSc1nccnc1O[C@H]1CN2CCC[C@@H]1C2` (relative stereo) [Compound 43, (±)-endo-2-(4-Methyl-3-pentenylthio)-3-(1-azabicyclo[3.2.1]octyl-6-oxy)pyrazine], for which the IC50 stood at 0.0081 µM.
`CCCCCOc1nccnc1OC1CN2CCC1CC2` (racemic) [Compound 9, (+/-)-3-(1-Pentyloxy)-2-(1-azabicyclo[2.2.2]octyl-3-oxy)pyrazine] came in with an IC50 of 0.036 µM.
`C[N+](C)(C)CCOc1cnccn1` [Compound 27, 2-(2-Trimethylaminoethoxy)pyrazine iodide] registered an IC50 greater than 1 µM.
`Cc1nccnc1O[C@H]1CN2CCC[C@@H]1C2` (relative stereo) [Compound 20, 3-Methyl-2-[endo-(+,-)-6-(1-azabicyclo[3.2.1]octyloxy)]-pyrazine] registered an IC50 of 0.245 µM.
On to `CN1[C@@H]2CC[C@H]1C[C@@H](Oc1cnccn1)C2` [Compound 25, endo-(8-methyl-8-azabicyclo[3.2.1]octyl-3-oxy)pyrazine], for which the IC50 stood at 0.18 µM.

Another assay has as its system M1-sites (muscarinic receptors).
Assay: not given
The conditions noted are these: cited from earlier work.
In the case of `CN1CCN(CC(=O)N2c3ccccc3C(=O)Nc3cccnc32)CC1` [pirenzepine], the “selectivity for M1-sites” value is given as “selective for M1 -sites”.
